Source: patent US11299480B2, “2-arylsulfonamido-N-arylacetamide derivatized STAT3 inhibitors” (University of Hawaii, priority 2017, dated 2022)

Assays:
[1] = in vitro; settings: human, Caco-2
[2] = test system: Caco-2 cells; test: Cell membrane permeability, Caco-2 cells assay; settings: for Caco-2 Cells Recovery B to A / Caco-2 Cells Permeability B to A: basolateral to apical; for Caco-2 Cells Recovery B to A / Caco-2 Cells Recovery A to B: second number of cell; for Caco-2 Cells Permeability A to B / Caco-2 Cells Recovery A to B: apical to basolateral; for Caco-2 Cells Permeability A to B / Caco-2 Cells Permeability B to A: first number of cell, 10^−6 cm/sec
[3] = Mouse liver microsomal (MLM) metabolic stability; settings: mouse, liver microsomes
[4] = Human liver microsomal (HLM) metabolic stability; settings: liver microsomes
[5] = in vitro; settings: human, liver microsomes
[6] = in vitro; settings: mouse, liver microsomes
[7] = target: Stat3 (Mus musculus, UniProt P42227); type: biochemical; settings: Stat3 DNA-binding activity in vitro; nuclear extracts pre-incubated with compound 30 min at room temperature, hSIE probe; read-out: EMSA IC50
Protocol: FIG. 1. Effect of select compounds of the present invention on Stat3 DNA-binding activity in vitro. […] Positions of Stat3:DNA complexes in gel are labeled; control lanes (0) represent nuclear extracts pre-treated with 10% DMSO.
(§1) Except where indicated, nuclear extracts were pre-incubated with compound for 30 min at room temperature prior to incubation with the radiolabeled probe for 30 min at 30° C. before subjecting to EMSA analysis. Where appropriate, bands corresponding to Stat3:DNA complexes were scanned and quantified for each concentration of compound using ImageJ and plotted as percent of control (DMSO) against concentration of compound, from which the IC50 values were derived.

[8] = test system: Stat5; test: Stat5 DNA-binding activity in vitro, EMSA (MGFe probe); type: biochemical; settings: 10 μM or 0-30 μM compound
From the text: FIG. 2. […] Positions of Stat:DNA complexes in gel are labeled; control lanes (0 or Con) represent nuclear extracts pre-treated with 10% DMSO. […] Where appropriate, bands corresponding to Stat3:DNA complexes were scanned and quantified for each concentration of compound using ImageJ and plotted as percent of control (DMSO) against concentration of compound, from which the IC50 values were derived.

[9] = test system: pY705Stat3; test: Constitutive Stat3 tyrosine phosphorylation, immunoblot, MDA-MB-468 cells; type: cell-based, human; settings: MDA-MB-468, 5 μM, 1 h treatment (inhibition stated only for MDA-MB-231)
Protocol: (§2) FIG. 3. Effects of select compounds of the present invention on Stat3 DNA-binding activity and Stat3 tyrosine phosphorylation in cells. (FIG. 3A) EMSA analysis of Stat3 DNA-binding activity in nuclear extracts of equal total protein prepared from cells treated with DMSO (0 as control, Con), 5 or 10 μM of compounds for 1-34 h. Positions of Stat3:DNA complexes in gel are labeled. […] Positions of Stat3:DNA complexes or proteins in gel are shown; control (0 or Con) lane represents whole-cell lysates or nuclear extracts prepared from 0.05% DMSO-treated cells. […] Data are representative of 2-3 independent determinations.
(§3) All antibodies tested were purchased from Cell Signaling Technology.
(§4) Altogether, the new analogs show strong, albeit variable degrees of inhibition of constitutive Stat3 DNA-binding activity and Tyr phosphorylation in human tumor cells.

[10] = test system: pY705Stat3; test: Constitutive Stat3 tyrosine phosphorylation, immunoblot, MDA-MB-231 cells; type: cell-based, human; settings: MDA-MB-231, 5 μM, 1 h treatment
Protocol: as §2, §3, §4

[11] = physchem
[12] = Aqueous solubility (PBS, SGF, SIF)
[13] = test system: Stat1; test: Stat1 DNA-binding activity in vitro, EMSA (MGFe probe); type: biochemical; settings: 10 μM or 0-30 μM compound
From the text: FIG. 2. Effects of select compounds of the present invention on Stat1 and Stat5 DNA-binding activity. […] Positions of Stat:DNA complexes in gel are labeled; control lanes (0 or Con) represent nuclear extracts pre-treated with 10% DMSO. Data are representative of 1-3 independent determinations. […] Where appropriate, bands corresponding to Stat3:DNA complexes were scanned and quantified for each concentration of compound using ImageJ and plotted as percent of control (DMSO) against concentration of compound, from which the IC50 values were derived. In order to determine the specificity of select new analogs active against Stat3 activity, the inventors investigated the effects on the inhibition of other STAT family members, including Stat1 and Stat5 DNA-binding activity in vitro.

[14] = target: Stat3 (Homo sapiens (Human), UniProt P40763); test: Stat3 DNA-binding activity in nuclear extracts of treated MDA-MB-231 cells, EMSA; type: cell-based; settings: 10 μM
Protocol: as §2
as §1, with “The ^32P-labeled oligonucleotide probes used were hSIE (high affinity sis-inducible element from the c-fos gene, m67 variant, 5′-[…]) (SEQ ID NO: 1) that binds Stat1 and Stat3 and MGFe (mammary gland factor element from the bovine β-casein gene promoter, 5′-[…]) (SEQ ID NO: 2) for Stat1 and Stat5 binding. Except” for “Except”
Select compounds of the invention were investigated for their inhibitory effects of the active analogs on intracellular Stat3 signaling. […] Nuclear extracts were prepared and subjected to EMSA analysis for Stat3 DNA-binding activity. […] Stat3 DNA-binding activity in MDA-MB-231 cells was inhibited by both Examples 1 and 5 following treatment at 3 h, with little change at 1 h (FIG. 3A).

[15] = simulated gastric fluid (SGF), pH 1.2, simulated gastric fluid

Chain of Stat3 (Homo sapiens (Human), UniProt P40763) (P40763 whole entry): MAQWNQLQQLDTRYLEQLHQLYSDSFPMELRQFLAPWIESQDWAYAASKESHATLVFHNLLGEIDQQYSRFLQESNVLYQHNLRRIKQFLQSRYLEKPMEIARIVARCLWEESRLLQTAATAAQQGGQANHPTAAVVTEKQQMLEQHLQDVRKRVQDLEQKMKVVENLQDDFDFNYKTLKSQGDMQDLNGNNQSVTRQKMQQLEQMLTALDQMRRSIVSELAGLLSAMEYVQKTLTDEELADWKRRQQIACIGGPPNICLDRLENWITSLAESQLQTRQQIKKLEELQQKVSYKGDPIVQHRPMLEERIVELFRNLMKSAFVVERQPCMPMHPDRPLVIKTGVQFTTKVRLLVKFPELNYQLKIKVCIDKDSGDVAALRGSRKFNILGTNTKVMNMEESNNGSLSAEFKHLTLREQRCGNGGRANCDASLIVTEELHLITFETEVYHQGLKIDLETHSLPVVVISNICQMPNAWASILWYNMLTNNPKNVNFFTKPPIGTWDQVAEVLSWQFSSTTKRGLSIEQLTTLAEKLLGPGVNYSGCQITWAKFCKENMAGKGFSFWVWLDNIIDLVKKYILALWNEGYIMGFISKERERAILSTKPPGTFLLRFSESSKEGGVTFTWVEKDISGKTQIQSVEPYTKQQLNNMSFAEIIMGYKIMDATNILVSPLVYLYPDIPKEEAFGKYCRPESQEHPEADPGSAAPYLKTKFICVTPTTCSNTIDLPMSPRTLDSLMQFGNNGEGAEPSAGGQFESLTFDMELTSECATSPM
Chain of Stat3 (Mus musculus, UniProt P42227) (P42227 2-770 limits assumed): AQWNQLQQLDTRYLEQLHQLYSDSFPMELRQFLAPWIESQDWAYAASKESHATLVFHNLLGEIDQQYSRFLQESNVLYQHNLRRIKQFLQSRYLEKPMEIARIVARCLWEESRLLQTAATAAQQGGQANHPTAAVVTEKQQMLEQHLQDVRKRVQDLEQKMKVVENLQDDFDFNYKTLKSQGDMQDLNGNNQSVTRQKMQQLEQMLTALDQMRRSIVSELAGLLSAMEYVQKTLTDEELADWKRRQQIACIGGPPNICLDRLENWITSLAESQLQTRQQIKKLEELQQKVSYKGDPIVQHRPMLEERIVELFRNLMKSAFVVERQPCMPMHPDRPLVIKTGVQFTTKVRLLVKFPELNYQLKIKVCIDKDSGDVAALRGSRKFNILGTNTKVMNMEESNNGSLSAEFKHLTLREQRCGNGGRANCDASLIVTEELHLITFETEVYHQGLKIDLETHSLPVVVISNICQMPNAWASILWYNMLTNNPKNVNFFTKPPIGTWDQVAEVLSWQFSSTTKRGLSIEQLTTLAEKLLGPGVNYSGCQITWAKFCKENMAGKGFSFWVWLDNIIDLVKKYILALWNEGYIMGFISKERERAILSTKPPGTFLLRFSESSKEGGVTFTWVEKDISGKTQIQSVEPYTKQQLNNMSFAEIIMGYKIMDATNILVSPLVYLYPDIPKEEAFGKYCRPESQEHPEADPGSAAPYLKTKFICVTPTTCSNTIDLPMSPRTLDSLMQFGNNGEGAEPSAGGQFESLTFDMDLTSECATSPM

## C[C@H](C(=O)N(Cc1ccc(C2CCOCC2)cc1)c1ccc(C(=O)[O-])c(O)c1)N(C)S(=O)(=O)c1c(F)c(F)c(F)c(F)c1F.[Na+] [Example 59, Sodium (R)-2-hydroxy-4-(2-((2,3,4,5,6-pentafluoro-N-methylphenyl)sulfonamido)-N-(4-(tetrahydro-2H-pyran-4-yl)benzyl)propanamido)benzoate]
[1]
  Papp B→A: 0.7 ×10⁻⁶ cm/s
  recovery: 31%
[2]
  Caco-2 Cells Recovery B to A: 40%
[3]
  Metabolic Stability Half-Life MLM: 4 min
[4]
  Metabolic Stability Half-Life HLM: 5 min
[5]
  half-life: ≤ 5 min
[6]
  half-life: ≤ 5 min

## C[C@H](C(=O)N(Cc1ccc(C2CCOCC2)cc1)c1ccc(C(=O)O)c(O)c1)N(C)S(=O)(=O)c1c(F)c(F)c(F)c(F)c1F [Example 57, (R)-2-Hydroxy-4-(2-((2,3,4,5,6-pentafluoro-N-methylphenyl)sulfonamido)-N-(4-(tetrahydro-2H-pyran-4-yl)benzyl)propanamido)benzoic acid]
[7]
  IC50: 5 ± 0.8 µM
[8]
  effect on Stat5 DNA-binding activity: minimum effect

## O=C(O)c1ccc(N(Cc2ccc(C3CCCCC3)cc2)C(=O)[C@@H]2CCCN2S(=O)(=O)c2c(F)c(F)c(F)c(F)c2F)cc1O [Example 26, (S)-4-(N-(4-Cyclohexylbenzyl)-1-((pentafluorophenyl)sulfonyl)pyrrolidine-2-carboxamido)-2-hydroxybenzoic acid]
[7]
  IC50: 7.2 ± 3.4 µM
[9]
  pY705Stat3 levels: only inhibited pY705Stat3 levels in MDA-MB-231
[10]
  pY705Stat3 levels: inhibited pY705Stat3 levels

## O=C([O-])c1ccc(N(Cc2ccc(C3CCOCC3)cc2)C(=O)[C@H]2CCCN2S(=O)(=O)c2c(F)c(F)c(F)c(F)c2F)cc1O.[Na+]
[1]
  Papp: 0.1 ×10⁻⁶ cm/s
[2]
  Caco-2 Cells Permeability A to B: 0.2
  Caco-2 Cells Recovery A to B: 34%
  Caco-2 Cells Permeability B to A: 0.2
  Caco-2 Cells Recovery B to A: 60%
[5]
  half-life: 15 min
[11]; PBS buffer, pH 7.4, aqueous buffer
  solubility: 132 µg/mL
[11]; [15]
  solubility: 0.4 µg/mL
[11]; simulated intestinal fluid (SIF), fassgf or other biorelevant
  solubility: 129 µg/mL
[6]
  half-life: 18 min

## C[C@H](C(=O)N(Cc1ccc(C2CCCCC2)cc1)c1ccc(C(=O)[O-])c(O)c1)N(C)S(=O)(=O)c1c(F)c(F)c(F)c(F)c1F.[Na+]
[2]
  Caco-2 Cells Permeability A to B: 0
  Caco-2 Cells Recovery A to B: 6%
  Caco-2 Cells Permeability B to A: 0
  Caco-2 Cells Recovery B to A: 2%
[2]; compounds with cyclohexyl group instead of THP ring
  Caco-2 permeability: no appreciable permeability
[12]
  solubility in PBS buffer pH 7.4: 127 μg/mL
  solubility in simulated intestinal fluid (SIF): 127 µg/mL
[12]; PBS buffer pH 7.4
  Solubility PBS: 127 micrograms/milliliter
[12]; simulated intestinal fluid
  Solubility SIF: 127 micrograms/milliliter
[3]
  Metabolic Stability Half-Life MLM: 5 min
[4]
  Metabolic Stability Half-Life HLM: 4 min
[5]
  half-life: ≤ 5 min
[11]; [15]
  solubility: 1.3 µg/mL
[6]
  half-life: ≤ 5 min

## O=C(O)c1ccc(N(Cc2ccc(C3CCOCC3)cc2)C(=O)[C@H]2CCCN2S(=O)(=O)c2c(F)c(F)c(F)c(F)c2F)c(F)c1 [Example 60, (R)-3-Fluoro-4-(1-((perfluorophenyl)sulfonyl)-N-(4-(tetrahydro-2H-pyran-4-yl)benzyl)pyrrolidine-2-carboxamido)benzoic acid]
[1]
  Papp: 0.2 ×10⁻⁶ cm/s
[2]
  Caco-2 Cells Permeability A to B: 0.1
  Caco-2 Cells Recovery A to B: 8%
  Caco-2 Cells Permeability B to A: 0.1
  Caco-2 Cells Recovery B to A: 67%
[5]
  half-life: 54 min
[6]
  half-life: 26 min

## C[C@@H](C(=O)N(Cc1ccc(C2CCCCC2)cc1)c1ccc(C(=O)O)c(O)c1)N(C)S(=O)(=O)c1c(F)c(F)c(F)c(F)c1F [Example 5, (S)-4-(N-(4-Cyclohexylbenzyl)-2-((2,3,4,5,6-pentafluoro-N-methylphenyl)sulfonamido)propan-amido)-2-hydroxybenzoic acid]
[13]
  effect on Stat1 DNA-binding activity: inhibited Stat1 activity to a moderate extent
[14]; 1 h treatment
  Stat3 DNA-binding activity in MDA-MB-231 cells: little change
[14]; 3 h treatment
  Stat3 DNA-binding activity in MDA-MB-231 cells: inhibited
[14]; 24 h treatment
  Stat3 DNA-binding activity in MDA-MB-231 cells: inhibited
